Columns and labels:
IL-6 mRNA in HBL1 cells = assay: IL-6 mRNA expression (Taqman); format: cell-based; conditions: HBL1, 24 hours, 10 nM to 10 uM
Excerpt: (§1) Constitutive activation of the NFkB pathway is a molecular hallmark of ABC DLBCL cells and is required for their proliferation and survival. See Davis, R. E., et al., J Exp Med, 194(12), 1861-1874 (2001). To confirm that the growth inhibitory effect in response to PKC inhibition is mediated through modulation of NFkB pathway signaling, the expression of NFkB pathway genes were monitored in response to AEB071 treatment. The NFkB-pathway-induced cytokine IL-6 was used as a marker to study NFkB pathway modulation by PKC inhibitors. See Lam, L. T., et al., Blood 111(7):3701-13 (2008). To measure IL-6 mRNA levels, cells were plated in […] plates in 2 ml media at 2M/ml, then treated with DMSO or inhibitors from 10 nM to 10 uM (4-fold dilutions) for 24 hours. Total RNA was harvested using the RNeasy kit (Qiagen, #74104) and cDNA was made from 1 μg total RNA using the High Capacity cDNA kit (ABI, #4368814), according to manufacturer's protocols. Taqman probes (ABI: IL-6, Hs00174131_m1) were used with Gene Expression Master Mix (ABI, 4369510) to determine the amount of mRNA expression for IL-6 relative to an endogenous control gene (ABI: TBP, 4326322E) and the DMSO control using the delta-delta Ct method.

[1] = test system: IL-6 mRNA in OCI-Ly10 cells; assay: IL-6 mRNA expression (Taqman); format: cell-based; conditions: OCI-Ly10, 24 hours, 10 nM to 10 uM
Excerpt: as §1

[2] = test system: IL-6 mRNA in OCI-Ly3 cells; assay: IL-6 mRNA expression (Taqman); format: cell-based; conditions: OCI-Ly3 (mutant CARD11), 24 hours, 10 nM to 10 uM
Excerpt: as §1

IL-6 mRNA in TMD8 cells = assay: IL-6 mRNA expression (Taqman); format: cell-based; conditions: TMD8, 24 hours, 10 nM to 10 uM
Excerpt: as §1

TMD8 xenograft = assay: Subcutaneous TMD8 xenograft model, tumor growth; format: in vivo, SCID-beige mice; conditions: 80 mg/kg, tid, daily oral dosing; p<0.05 vs vehicle
Method: CD79 mutant ABC DLBCL were also shown to be sensitive to PKC inhibition in an in vivo setting by using a subcutaneous TMD8 xenograft model. Female SCID-beige mice were purchased from Charles River Labs (Wilmington Mass.) and housed in temperature and a humidity-controlled vivarium with a 12 hours light cycle and provided food and water ad libitum. Mice were implanted subcutaneously with 10×10^6 TMD8 cells in 50% matrigel (BD Biosciences, #354234) in the right dorsal axillary region, and animals were randomized into treatment groups when tumor sizes average ˜160 mm^3 (21 days post-implantation). AEB071 was formulated in 20% PEG400 and 4.5% 0.1 M HCl in D5W. Tumor volume was measured by callipering in 2 dimensions and calculated as (Length×Width^2)/2. Animals were callipered twice weekly during treatment to monitor effects on tumor growth. […] T/C percentage was calculated as the mean change in tumor volumes of treated animals divided by the mean change in tumor volumes of vehicle animals and multiplied by 100. Data are expressed as mean±SEM, and differences are considered statistically significant at p<0.05 by Student t-test.

[3] = test system: IL-10 mRNA in TMD8 xenograft tumor; assay: IL-10 mRNA expression in TMD8 xenograft tumor tissue (PD arm); format: in vivo, SCID-beige mice
Method: To confirm that the growth inhibitory effect in response to PKC inhibition is mediated through modulation of NFkB pathway signaling, the mRNA expression of IL-10 was monitored in response to AEB071 treatment in a PD arm of the in vivo study. Mice were implanted with TMD8 cells as described above, and when the tumor volume reached ˜160 mm^3, a single dose of 80 mg/kg AEB071 was administered. Tumor samples were harvested and snap frozen in liquid nitrogen, at 1 hour or 8 hours following the single does of AEB071. Tissue samples were homogenized and lysed in RLT buffer (Qiagen, #74104) with Reagent DX (Qiagen, 19088) using the TissueLyser II (Qiagen, 85300). Total RNA was harvested using the RNeasy kit (Qiagen, #74104) and cDNA was made from 1 μg total RNA using the High Capacity cDNA kit (ABI, #4368814), according to manufacturer's protocols. The IL-10 Taqman probe (ABI, Hs00174086_m1) was used with Gene Expression Master Mix (ABI, 4369510) to determine the amount of mRNA expression for IL-10 relative to an endogenous control gene (ABI: TBP, 4326322E) and the DMSO control using the delta-delta Ct method. […] Consistent with the in vitro kinetics of NFkB target gene downregulation by AEB071, IL-10 mRNA expression was unaffected after just 1 hour of treatment (see, FIG. 3A).

CN1CCN(c2nc(C3=C(c4c[nH]c5ccccc45)C(=O)NC3=O)c3ccccc3n2)CC1 [AEB071, 3-(1H-Indol-3-yl)-4-[2-(4-methylpiperazin-1-yl)quinazolin-4-yl]-1H-pyrrole-2,5-dione]
IL-6 mRNA expression (IL-6 mRNA in HBL1 cells): dose-dependent decrease
IL-6 mRNA expression [1]: dose-dependent decrease
IL-6 mRNA expression [2]: unaffected
IL-6 mRNA expression (IL-6 mRNA in TMD8 cells): dose-dependent decrease
T/C (tumor growth) (TMD8 xenograft): 17%
IL-10 mRNA expression in xenograft tumor tissue ([3]; 1 hour after single dose of 80 mg/kg): unaffected
IL-10 mRNA expression in xenograft tumor tissue ([3]; 8 hours after single dose of 80 mg/kg): decrease

— patent US8748428B2, “Use of a PKC inhibitor” (Novartis AG, priority 2010, dated 2014)
